Reference: paper PMC8287028 (Frontiers in Veterinary Science, 2021)
Several values for one entry are separate records, joined by “and”; a condition that tells them apart may be missing. Identical values can stand only once.

How the values were obtained:
[1] = Pharmacokinetics after oral apixaban capsules, plasma concentrations by LC/MS; conditions: for AUC: AUC (area-under-the-curve); for Cmax: CMax (peak concentration); for bioavailability: F% (fraction of oral dose absorbed, bioavailability); for half-life: K10 T½ (apparent elimination half-life); for Vd/F: V/F (volume of distribution per fraction absorbed)
Excerpt: Additionally, drug metabolism might be different in beagles compared with mixed-breed dogs ([33], [34]). […] The study was approved by the Institutional Animal Care and Use Committee (IACUC) at Cornell University College of Veterinary Medicine (Protocol #2019-0099). All dogs were housed at Cornell University and cared for by licensed veterinarians and technicians according to established protocols. All dogs were permanently adopted into private homes after study completion.
To achieve uniform dosing, custom IV (2.5 mg/ml) and oral capsule formulations were created. The protocol for generation of the IV formulation was as previously published ([25]), and all procedures were performed in a laminar flow hood under strict aseptic conditions. […] After vortexing, the formulation was aseptically filtered (Corning 0.22 μm cellulose acetate filter, Millipore-Sigma) then drawn into 10 ml syringes (BD, Franklin Lakes, NJ). The IV formulation was prepared 1 h before administration and stored in the dark at 20-25°C. […] All injection durations were identical. Separately, all dogs received bodyweight appropriate capsule size to provide ~0.2 mg/kg PO once. Capsules were administered without food and witnessed to be ingested. A minimum washout period of 2 weeks elapsed between initial PO administration and subsequent IV administration. The maximum duration of capsule storage prior to administration was 76 days.
On the days of drug administration, 5 Fr × 25 cm trilumen wire-guided catheters (Mila International, Erlanger, KY) were aseptically placed in external jugular veins by modified-Seldinger technique to facilitate atraumatic, repeat blood sample collection. Dogs were sedated with IV butorphanol 0.2 mg/kg and dexmedetomidine 5 μg/kg (Zoetis, Parsippany, NJ) to facilitate catheter placement. Jugular catheters were secured using 3-0 nylon sutures, protected with sterile bandages, and flushed with 0.9% saline (no heparin was used). Dogs were allowed to recover fully from sedation prior to drug administration. […] Catheters were flushed with 0.9% saline, without heparin. Samples were also drawn into K2-EDTA and no-additive tubes at baseline and 24 h post-administration for complete blood counts and serum biochemistry profiles. Dogs were closely monitored for adverse reactions throughout the sample collection period. […] After each sample collection, one citrate anticoagulated whole blood sample was analyzed using thromboelastography (TEG), while the second citrate sample was centrifuged (1,370 g, 10 min, 20°C), the plasma separated, split into two aliquots and then frozen at −80°C pending batch analyses.
In brief, proteins in the sample were initially precipitated by combining 100 μl of plasma sample with 200 μl of 0.1 M ZnSO4 solution and 700 μl of isotope standard stock solution, mixing in a vortex device for 5 s followed by centrifugation (14,000 g, 5 min, RT). The supernatant was added to glass autosampler vials and an aliquot injected into the liquid chromatography 2D UPLC system (Waters Acquity UPLC H-class with 2D Technology System). Sample extraction was performed using a 2.1 × 30 mm reverse phase cartridge (column 1, Waters, XBridge C8, 10 μm) followed by an analytical separation on a 2.1 × 50 mm reverse phase column (column 2, Waters, Acquity UPLC BEH C18, 1.7 μm) and an elution with a linear gradient using water containing 0.1% formic acid and 2 mmol/L ammonium acetate and methanol containing 0.1% formic acid and 2 mmol/L ammonium acetate. […] A 10-point calibration curve was generated with concentrations ranging from 1 to 1,000 ng/ml, with three quality control samples at each of three concentrations (low, 2.5 ng/ml; medium, 50 ng/ml; high, 500 ng/ml).
Where C is the plasma drug concentration, V is the volume of distribution, D is the dose, K10 is the first order elimination rate constant, and T is time. Secondary parameters included area-under-the curve (AUC), systemic clearance (CL), and half-life.

citrated whole blood = experiment: Tissue-factor activated thromboelastography (TF-TEG) on citrated whole blood of dosed dogs; assay type: in vivo, dog
Description: Catheters were flushed with 0.9% saline, without heparin. […] Coagulation assays were performed on platelet-poor, citrated plasma samples by a reference laboratory (Comparative Coagulation Laboratory, Animal Health Diagnostic Center, Ithaca, NY). […] Residual, uninhibited Factor Xa cleaves the chromogenic substrate such that the inverse of the color change in the reaction mixture is proportional to the drug concentration in the test plasma. […] Assay controls, consisting of human plasma spiked with apixaban (STA Apixaban Controls, Diagnostica Stago) were analyzed before each batch of test samples to confirm assay performance. The apixaban levels in calibrators and controls are defined by the manufacturer from an internal reference assayed by HPLC-MS. […] A mechanical endpoint method (STA Compact, Diagnostica Stago) and human coagulation reagents were used to measure prothrombin time (Thromboplastin LI, Helena Diagnostics, Beaumont, TX) and activated partial thromboplastin time (Dade Actin FS, Dade Behring, Newark, DE). […] Tissue-factor (1:50,000 final dilution) activated TEG was performed using standard equipment (TEG-5000, Haemonetics, Braintree, MA) as previously reported ([35]), with assays conducted per established guidelines ([36]), with a modification to eliminate the rest time to facilitate rapid sample processing. Thromboelastography assays were conducted by experienced operators using four TEG channels and tracings terminated after maximum amplitude was established. Four values were extracted from TEG tracings: reaction time (R-time), clot formation time (K-time), clot formation angle (alpha), and maximum amplitude (MA). Pairwise comparisons between continuous variables were conducted with Wilcoxon matched-pairs signed rank test, while comparisons of more than two groups were conducted using the Friedman test with Dunn's post-hoc adjustment. Specifically, the Wilcoxon matched-pairs signed rank tests were used to compare the complete blood count and serum chemistry values between baseline and the +24 h time point. Comparisons of pharmacodynamic variables between baseline values and those at discrete sampling intervals were performed using the Friedman test with Dunn's post-hoc correction for multiple comparisons. […] Alpha was set at 0.05. Statistical analyses were performed using commercial software (Prism 9, GraphPad, La Jolla, CA).

Factor Xa = conditions: cited from earlier work
[2] = both, mixed-breed, dog, plasma, po, 0.2 mg/kg, dogs, mean dose 0.2 mg/kg, geometric mean, n = 5
[3] = both, mixed-breed, dog, plasma, po, 0.2 mg/kg, dogs, mean dose 0.2 mg/kg, mean, n = 5
[4] = dogs, PO, mean dose 0.2 mg/kg, model fit, individual dogs (Dog 1-5), 0.2 mg/kg
[5] = dogs, PO, mean dose 0.2 mg/kg, geometric mean, n = 5
[6] = dogs, PO, mean dose 0.2 mg/kg, individual dogs (Dog 1-5), 0.2 mg/kg
[7] = dogs, PO, mean dose 0.2 mg/kg, mean, n = 5

COc1ccc(-n2nc(C(N)=O)c3c2C(=O)N(c2ccc(N4CCCCC4=O)cc2)CC3)cc1 [apixaban]
mean maximum observed plasma concentration (CMax) ([1]; both, mixed-breed, dog, in vivo, po): 176 ± 126 ng/mL
CL/F ([1]; both, mixed-breed, dog, in vivo, po, 0.2 mg/kg): 0.113 L/h/kg
AUC [1, 2]: 1.77 µg·h/mL
AUC [1, 3]: 1.95 µg·h/mL
CL/F ([1]; both, mixed-breed, dog, plasma, po, 0.2 mg/kg, CL/F (systemic clearance per fraction absorbed), dogs, mean dose 0.2 mg/kg, mean, n = 5): 0.125 L/h/kg
Cmax ([1]; both, mixed-breed, dog, plasma, po, 0.2 mg/kg, dogs, mean dose 0.2 mg/kg, model fit, geometric mean, n = 5): 0.196 µg/mL
Cmax ([1]; both, mixed-breed, dog, plasma, po, 0.2 mg/kg, dogs, mean dose 0.2 mg/kg, model fit, mean, n = 5): 0.223 µg/mL
bioavailability ([1]; both, mixed-breed, dog, plasma, po, 0.2 mg/kg, dogs, PO 0.2 mg/kg vs IV 0.18 mg/kg, geometric mean, n = 5): 24.1%
bioavailability ([1]; both, mixed-breed, dog, plasma, po, 0.2 mg/kg, dogs, PO 0.2 mg/kg vs IV 0.18 mg/kg, mean, n = 5): 28.4%
half-life [1, 2]: 3 h
half-life ([1]; both, mixed-breed, dog, plasma, po, 0.2 mg/kg, dogs, mean dose 0.2 mg/kg, individual dogs (Dog 1-5)): 3.8 h
half-life [1, 3]: 3.1 h
TMax ([1]; both, mixed-breed, dog, plasma, po, 0.2 mg/kg, TMax, dogs, mean dose 0.2 mg/kg, model fit, geometric mean, n = 5): 5 h
TMax ([1]; both, mixed-breed, dog, plasma, po, 0.2 mg/kg, TMax, dogs, mean dose 0.2 mg/kg, model fit, individual dogs (Dog 1-5)): 3.5 h
Vd/F [1, 2]: 0.492 L/kg
Vd/F [1, 3]: 0.534 L/kg
F% (fraction of oral dose absorbed, bioavailability) ([1]; dogs, PO 0.2 mg/kg vs IV 0.18 mg/kg, individual dogs (Dog 1-5)): 35.0% and 51.5% and 15.0% and 10.0% and 30.4%
residual plasma concentrations ([1]; dogs, PO 0.2 mg/kg, quantifiable at the 24-h time point): declined to below the level of quantitation by the 30-h time point
AUC (area-under-the-curve) ([1]; dogs, PO capsule, mean dose 0.2 mg/kg, fasted, individual dogs (Dog 1-5), 0.2 mg/kg): 2,082.4 h*ng/ml and 2,396.3 h*ng/ml and 1,335.5 h*ng/ml and 863.4 h*ng/ml and 3,051.2 h*ng/ml
CMax (peak concentration) [1, 4]: 236.2 ng/mL and 294.3 ng/mL and 165.1 ng/mL and 71.4 ng/mL and 348.5 ng/mL
TMax [1, 4]: 4.4 h and 4.9 h and 6.3 h and 6.1 h
TMax (time to CMax) ([1]; dogs, PO, mean dose 0.2 mg/kg, model fit, mean, n = 5, 0.2 mg/kg): 5 h
K01 (first order absorption rate) [1, 5]: 0.4 h⁻¹
K10 (first order elimination rate) [1, 5]: 0.2 h⁻¹
TLag (lag time for capsule dissolution and stomach emptying) [1, 5]: 1.8 h
CL/F (systemic clearance per fraction absorbed) [1, 6]: 0.0984 L/h/kg and 0.0797 L/h/kg and 0.1558 L/h/kg and 0.2201 L/h/kg and 0.0688 L/h/kg
K01 (first order absorption rate) [1, 6]: 0.7 h⁻¹ and 0.5 h⁻¹ and 0.3 h⁻¹ and 0.2 h⁻¹ and 0.6 h⁻¹
K10 (first order elimination rate) [1, 6]: 0.2 1/h (4×) and 0.3 1/h
TLag (lag time for capsule dissolution and stomach emptying) [1, 6]: 0.9 h and 1.6 h and 1.9 h and 1.8 h and 3.4 h
V/F (volume of distribution per fraction absorbed) [1, 6]: 0.5407 L/kg and 0.3267 L/kg and 0.4659 L/kg and 0.9747 L/kg and 0.3612 L/kg
K01 (first order absorption rate) [1, 7]: 0.5 h⁻¹
K10 (first order elimination rate) [1, 7]: 0.2 h⁻¹
TLag (lag time for capsule dissolution and stomach emptying) ([1]; dogs, PO, mean dose 0.2 mg/kg, mean, n = 5, 0.2 mg/kg): 2 h and 2.0 h
time of mean maximum observed plasma concentration ([1]; dogs, single oral dose 0.20 mg/kg, post-dosing, observed): 6 h
TF-TEG K-time versus baseline (citrated whole blood; IV 0.18 mg/kg, at 5 min): significantly different from baseline
TF-TEG R-time versus baseline (citrated whole blood; IV 0.18 mg/kg, at 5 min): significantly different from baseline
TF-TEG alpha angle versus baseline (citrated whole blood; IV 0.18 mg/kg, at 5 min): significantly different from baseline
TF-TEG R-time versus baseline (citrated whole blood; IV 0.18 mg/kg, at 15 min ([…])): significantly prolonged
TF-TEG tracings (citrated whole blood; PO 0.2 mg/kg): not consistently affected
TF-TEG R-time versus baseline (citrated whole blood; PO 0.2 mg/kg, at the 12-h timepoint): significantly different from baseline
aXa activity observed after 12 h (Factor Xa; humans receiving a single intravenous apixaban injection): 150 ng/mL
aXa activity values typically observed in human treatment trials (Factor Xa; humans): approximately 150 ng/ml
